Experimental data as given in article PMC10074544 (Cell chemical biology, 2023).
Structures can show the parent of a compound that is named as a salt. Residues, ends and D or L forms follow the SMILES beside them. *: point of attachment. Cbz = O=C(OCc1ccccc1)*

Legend:
CDK9 [1] = target: T1, CDK9 (Homo sapiens, UniProt P50750); assay: CDK9 degradation in MOLT4 cells; type: cell-based; settings: for effect of pre-treatment on CDK9 degradation by 955: pre-treatment before 955
H1299 lung cancer cells = assay: Cell killing in KEAP1 siRNA- vs control siRNA-treated H1299 cells; type: cell-based, human; settings: 24 h treatment
[2] = tested on: LNCaP prostate cancer cells; assay: Cell killing in KEAP1 siRNA- vs control siRNA-treated LNCaP cells; type: cell-based, human; settings: 24 h treatment
[3] = target: CDK9:955:KEAP1 ternary complex (Homo sapiens, UniProt P50750+Q14145); assay: NanoBRET ternary complex formation assay in live 293T cells; type: cell-based; settings: HiBit-CDK9 and Halo-KEAP1, 6 h
Sequence of CDK9:955:KEAP1 ternary complex (P50750 whole entry): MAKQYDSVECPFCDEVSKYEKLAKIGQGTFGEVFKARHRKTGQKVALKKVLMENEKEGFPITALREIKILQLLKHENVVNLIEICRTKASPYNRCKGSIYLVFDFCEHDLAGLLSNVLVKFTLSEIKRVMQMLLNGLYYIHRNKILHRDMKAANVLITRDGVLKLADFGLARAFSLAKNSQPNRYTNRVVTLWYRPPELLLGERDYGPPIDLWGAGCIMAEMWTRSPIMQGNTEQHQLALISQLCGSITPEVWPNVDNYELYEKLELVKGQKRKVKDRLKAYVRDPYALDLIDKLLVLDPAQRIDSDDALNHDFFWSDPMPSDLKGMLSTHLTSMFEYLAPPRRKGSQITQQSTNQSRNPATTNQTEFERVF
Sequence of CDK9:955:KEAP1 ternary complex (Q14145 whole entry): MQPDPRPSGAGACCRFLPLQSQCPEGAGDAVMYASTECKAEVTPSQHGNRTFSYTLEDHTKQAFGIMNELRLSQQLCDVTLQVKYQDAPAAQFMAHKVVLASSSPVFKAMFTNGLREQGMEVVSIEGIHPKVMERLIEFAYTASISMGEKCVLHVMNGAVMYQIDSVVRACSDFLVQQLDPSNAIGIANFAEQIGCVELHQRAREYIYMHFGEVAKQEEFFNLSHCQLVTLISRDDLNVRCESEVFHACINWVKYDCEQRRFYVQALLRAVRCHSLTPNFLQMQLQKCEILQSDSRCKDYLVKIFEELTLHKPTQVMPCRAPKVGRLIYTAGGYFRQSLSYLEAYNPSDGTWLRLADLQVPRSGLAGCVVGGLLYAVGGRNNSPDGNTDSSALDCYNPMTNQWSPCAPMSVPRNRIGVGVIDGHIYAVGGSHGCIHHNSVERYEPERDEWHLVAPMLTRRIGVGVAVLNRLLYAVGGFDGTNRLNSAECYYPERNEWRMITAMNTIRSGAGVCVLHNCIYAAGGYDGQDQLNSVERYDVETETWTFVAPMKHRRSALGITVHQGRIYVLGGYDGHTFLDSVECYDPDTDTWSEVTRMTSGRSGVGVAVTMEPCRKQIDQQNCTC
Sequence of CDK9:955:KEAP1 ternary complex (O60563 whole entry partner): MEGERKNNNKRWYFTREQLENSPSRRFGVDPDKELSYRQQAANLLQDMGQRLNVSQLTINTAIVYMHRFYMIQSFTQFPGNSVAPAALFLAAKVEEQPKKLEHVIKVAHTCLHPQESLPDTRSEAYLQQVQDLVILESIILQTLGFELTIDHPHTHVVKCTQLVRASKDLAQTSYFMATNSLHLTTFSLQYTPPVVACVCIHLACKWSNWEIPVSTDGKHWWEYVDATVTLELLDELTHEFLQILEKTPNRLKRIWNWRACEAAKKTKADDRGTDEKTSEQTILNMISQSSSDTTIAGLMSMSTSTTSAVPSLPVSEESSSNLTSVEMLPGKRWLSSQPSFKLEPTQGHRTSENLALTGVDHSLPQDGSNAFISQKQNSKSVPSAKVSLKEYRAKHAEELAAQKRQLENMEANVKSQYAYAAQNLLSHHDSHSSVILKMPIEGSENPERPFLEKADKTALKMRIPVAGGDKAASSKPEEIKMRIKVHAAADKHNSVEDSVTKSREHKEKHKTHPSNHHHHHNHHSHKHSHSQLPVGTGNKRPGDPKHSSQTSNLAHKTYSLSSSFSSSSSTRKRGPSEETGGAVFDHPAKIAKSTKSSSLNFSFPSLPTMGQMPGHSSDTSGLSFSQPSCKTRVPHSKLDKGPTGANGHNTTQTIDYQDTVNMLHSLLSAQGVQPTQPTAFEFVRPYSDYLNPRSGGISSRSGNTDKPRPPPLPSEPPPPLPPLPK

LNCaP = assay: Viability; type: cell-based, human
22RV1 = assay: Viability; type: cell-based, human
DU145 = assay: Viability; type: cell-based, human
PC3 = assay: Viability; type: cell-based, human
CDK9 [4] = settings: cited from earlier work
EML4-ALK = EML4-ALK (Homo sapiens, UniProt Q9HC35+Q9UM73); assay: EML4-ALK degradation in NCI-H2228 cells; type: cell-based; settings: for effect of pre-treatment on EML4-ALK degradation induced by 819: NCI-H2228 cells
CDK9 [5] = settings: read-out: IC50 CDK9; cited from earlier work
CDK10 [6] = target: T2, CDK10 (Homo sapiens, UniProt Q15131); settings: MOLT4 lysates; cited from earlier work
T2 sequence (Q15131 whole entry): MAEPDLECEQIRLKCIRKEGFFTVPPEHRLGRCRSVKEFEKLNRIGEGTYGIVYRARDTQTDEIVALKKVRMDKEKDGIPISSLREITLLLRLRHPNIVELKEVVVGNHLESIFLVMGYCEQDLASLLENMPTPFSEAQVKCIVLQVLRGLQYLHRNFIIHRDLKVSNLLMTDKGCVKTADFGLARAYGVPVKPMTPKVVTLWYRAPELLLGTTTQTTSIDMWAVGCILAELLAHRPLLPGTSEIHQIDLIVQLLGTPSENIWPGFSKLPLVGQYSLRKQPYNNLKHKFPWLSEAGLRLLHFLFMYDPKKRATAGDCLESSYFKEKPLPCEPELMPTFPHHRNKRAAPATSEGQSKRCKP

CDK9 [7] = target: T1, CDK9; assay: TMT-based global proteomics in MOLT4 cells, CDK9; type: cell-based
CDK10 [8] = target: T2, CDK10; assay: CDK10 degradation in MOLT4 cells; type: cell-based
c-Myc and MCL-1 [9] = assay: c-Myc and MCL-1 expression in MOLT4 cells; type: cell-based, human; settings: mRNA and protein
MOLT4 cells = assay: PARP cleavage; type: cell-based, human; settings: compared with SNS-032
[10] = tested on: CDK9-dependent transcription; assay: RNA-seq in MOLT4 cells; type: cell-based, human; settings: 6 h treatment, compared with SNS-032
c-Myc and MCL-1 [11] = assay: c-Myc and MCL-1 expression in LNCaP cells; type: cell-based, human
V5-TurboID-CDK9 = V5-TurboID-CDK9 (Homo sapiens, UniProt P50750+Q14145); assay: TurboID-bait assay in 293T cells; type: cell-based
Sequence of V5-TurboID-CDK9 (P50750 whole entry): as the sequence (P50750 whole entry) above
Sequence of V5-TurboID-CDK9 (Q14145 whole entry): as the sequence (Q14145 whole entry) above
Sequence of V5-TurboID-CDK9 (O60563 whole entry partner): as the sequence (O60563 whole entry partner) above

purified KEAP1 protein = purified KEAP1 protein (Homo sapiens, UniProt Q14145); assay: Gel-based competitive ABPP assay with IA-alkyne; type: binding; settings: serially diluted compound, purified His-KEAP1
Sequence of purified KEAP1 protein (Q14145 whole entry): as the sequence (Q14145 whole entry) above

CDK9 [12] = target: T1, CDK9; assay: CDK9 degradation in LNCaP cells; type: cell-based
CDK9 [13] = target: T1, CDK9; assay: CDK9 degradation in KEAP1 knockout / rescued H1299 cells; type: cell-based
[14] = 955 versus 336 with reduced Michael acceptors (Figure 2H)
[15] = PL or SNS-032 alone or their combination (Figure 1E)

T1 sequence (P50750 whole entry): as the sequence (P50750 whole entry) above

Question: For `COc1cc(CCC(=O)N2CCCCC2=O)cc(OC)c1OCCN1CCN(C(=O)CN2CCC(C(=O)Nc3ncc(SCc4ncc(C(C)(C)C)o4)s3)CC2)CC1` [compound 336, N-(5-(((5-(tert-butyl)oxazol-2-yl)methyl)thio)thiazol-2-yl)-1-(2-(4-(2-(2,6-dimethoxy-4-(3-oxo-3-(2-oxopiperidin-1-yl)propyl)phenoxy)ethyl)piperazin-1-yl)-2-oxoethyl)piperidine-4-carboxamide], which CDK9 degradation (CDK9 [1]; [14]) is on record?
Answer: does not induce CDK9 degradation

Question: What about the “effect of KEAP1 knockdown on cytotoxicity” value (from here on “effect of KEAP1 knockdown”) (H1299 lung cancer cells) of the same compound?
Answer: no significant effect

Question: And the “effect of KEAP1 knockdown” value [2]?
Answer: no significant effect

Question: What about the “formation of CDK9:KEAP1 ternary complex (nanoBRET)” value [3] of the same compound?
Answer: negligible

Question: With `CCOC(=O)c1ccc(N2NC(=O)/C(=C/c3ccc([N+](=O)[O-])o3)C2=O)cc1` [PYR-41] as the compound, how does the “effect of pre-treatment on CDK9 degradation by 955” value (“effect … on CDK9 degradation by 955” for short) (CDK9 [1]) read?
Answer: blocks

Question: What does the source list for `COc1cc(/C=C/C(=O)N2CCC=CC2=O)cc(OC)c1OC` [PL, (E)-1-(3-(3,4,5-trimethoxyphenyl)acryloyl)-5,6-dihydropyridin-2(1H)-one]?
Answer: anti-proliferative effect (LNCaP; within 3 μM): no anti-proliferative effect; anti-proliferative effect (22RV1; 22RV1, within 3 μM): no anti-proliferative effect; CDK9 degradation (CDK9 [1]; [15]): none of these treatments degraded CDK9; effect of pre-treatment on CDK9 degradation by 955 (CDK9 [1]): blocks; anti-proliferative effect (DU145; DU145, within 3 μM): no anti-proliferative effect; anti-proliferative effect (PC3; PC3, within 3 μM): no anti-proliferative effect

Question: With `CC(C)(C)c1cnc(CSc2cnc(NC(=O)C3CCN(CC(=O)NCCOCCOCCOCCNc4cccc5c4C(=O)N(C4CCC(=O)NC4=O)C5=O)CC3)s2)o1` (stereo not drawn) [THAL-SNS-032] as the compound, how does the “selectivity of degradation among SNS-032 targets” value (CDK9 [4]) read?
Answer: could only degrade CDK9 but not other known SNS-032 targets

Question: Which “effect … on CDK9 degradation by 955” value (CDK9 [1]) does the source give for `CCN(CC)CCCC(C)Nc1ccnc2cc(Cl)ccc12` (stereo not drawn) [chloroquine] here?
Answer: does not block

Question: With `COc1cc(/C=C/C(=O)N2CCC=CC2=O)cc(OC)c1OCC(=O)N1CCC(c2cc(OC(C)C)c(Nc3ncc(Cl)c(Nc4ccccc4S(=O)(=O)C(C)C)n3)cc2C)CC1` [compound 819, (E)-1-(3-(4-(2-(4-(4-((5-chloro-4-((2-(isopropylsulfonyl)phenyl)amino)pyrimidin-2-yl)amino)-5-isopropoxy-2-methylphenyl)piperidin-1-yl)-2-oxoethoxy)-3,5-dimethoxyphenyl)acryloyl)-5,6-dihydropyridin-2(1H)-one] as the compound, how does the EML4-ALK degradation (EML4-ALK; NCI-H2228 NSCLC cells) read?
Answer: can degrade EML4-ALK in a concentration-dependent manner

Question: For `COC(=O)/C=C/C(=O)OC` [DMF, dimethyl fumarate], which “effect … on CDK9 degradation by 955” value (CDK9 [1]) is on record?
Answer: blocks

Question: And the “effect of pre-treatment on EML4-ALK degradation induced by 819” value (from here on “effect of pre-treatment … by 819”) (EML4-ALK)?
Answer: blocks

Question: For `NS(=O)(=O)OC[C@H]1C[C@@H](Nc2ccnc3cc(-c4cccc(SC(F)(F)F)c4)nn23)[C@H](O)[C@@H]1O` [TAK-243], which “effect … on CDK9 degradation by 955” value (CDK9 [1]) is on record?
Answer: blocks

Question: With `CO/C1=C\C(C)=C\[C@@H](C)[C@@H](O)[C@@H](C)C/C(C)=C/C=C/[C@H](OC)[C@@H]([C@@H](C)[C@@H](O)[C@H](C)[C@@]2(O)C[C@@H](O)[C@H](C)[C@@H](C(C)C)O2)OC1=O` [Baf-A1] as the compound, how does the “effect … on CDK9 degradation by 955” value (CDK9 [1]) read?
Answer: does not block

Question: With `CC(C)C[C@H](NC(=O)[C@H](Cc1ccccc1)NC(=O)c1cnccn1)B(O)O` [bortezomib] as the compound, how does the “effect … on CDK9 degradation by 955” value (CDK9 [1]) read?
Answer: blocks

Question: For `CC1(C)CC[C@]2(C(=O)n3ccnc3)CC[C@]3(C)[C@H](C(=O)C=C4[C@@]5(C)C=C(C#N)C(=O)C(C)(C)[C@@H]5CC[C@]43C)[C@@H]2C1` [CDDO-IM], which “effect … on CDK9 degradation by 955” value (CDK9 [1]) is on record?
Answer: blocks

Question: Which EC50 (LNCaP; Homo sapiens, 72 h, read-out: EC50 (antiproliferative)) does the source give for `CC(C)(C)c1cnc(CSc2cnc(NC(=O)C3CCNCC3)s2)o1` [SNS-032, N-(5-(((5-(tert-butyl)oxazol-2-yl)methyl)thio)thiazol-2-yl)piperidine-4-carboxamide] here?
Answer: > 100 nM

Question: What about the EC50 (22RV1; Homo sapiens, 22Rv1, 72 h, read-out: EC50 (antiproliferative)) of the same compound?
Answer: > 100 nM

Question: What about the “binding to CDK10” value (CDK10 [6]) of the same compound?
Answer: moderate binding

Question: And the CDK9 degradation (CDK9 [1]; [15])?
Answer: none of these treatments degraded CDK9

Question: And the “effect … on CDK9 degradation by 955” value (CDK9 [1])?
Answer: blocks

Question: What about the CDK9 degradation (CDK9 [1]; short-term treatment (6 h)) of the same compound?
Answer: could not

Question: What about the “CDK9 level (global proteome)” value (CDK9 [7]; 1 μM for 6 h) of the same compound?
Answer: no significant effect

Question: And the EC50 (DU145; Homo sapiens, DU-145, 72 h, read-out: EC50 (antiproliferative))?
Answer: > 100 nM

Question: What about the “effect of KEAP1 knockdown” value (H1299 lung cancer cells) of the same compound?
Answer: no significant effect

Question: And the CDK10 degradation (CDK10 [8])?
Answer: no effect

Question: What about the “effect of KEAP1 knockdown” value [2] of the same compound?
Answer: no significant effect

Question: And the EC50 (PC3; Homo sapiens, PC-3, 72 h, read-out: EC50 (antiproliferative))?
Answer: > 100 nM

Question: Which “effect … on CDK9 degradation by 955” value (CDK9 [1]) does the source give for `CC(C)C[C@@H](C=O)NC(=O)[C@H](CC(C)C)NC(=O)[C@H](CC(C)C)NC(=O)OCc1ccccc1` [MG132] (Cbz-Leu-Leu-Leu-aldehyde) here?
Answer: blocks

Question: What about the “effect of pre-treatment … by 819” value (EML4-ALK) of the same compound?
Answer: blocks

Question: What about the “effect of pre-treatment on CDK10 degradation induced by 955” value (CDK10 [8]) of the same compound?
Answer: blocks

Question: Which “effect … on CDK9 degradation by 955” value (CDK9 [1]) does the source give for `COC(=O)[C@]12CCC(C)(C)C[C@H]1[C@H]1C(=O)C=C3[C@@]4(C)C=C(C#N)C(=O)C(C)(C)[C@@H]4CC[C@@]3(C)[C@]1(C)CC2` [CDDO-ME] here?
Answer: blocks

Question: Which “effect … on CDK9 degradation by 955” value (CDK9 [1]) does the source give for `NS(=O)(=O)OC[C@@H]1C[C@@H](n2ccc3c(N[C@H]4CCc5ccccc54)ncnc32)C[C@@H]1O` [MLN4924] here?
Answer: blocks

Question: And the “effect of pre-treatment … by 819” value (EML4-ALK)?
Answer: blocks

Question: And the “effect of pre-treatment on CDK10 degradation induced by 955” value (CDK10 [8])?
Answer: blocks

Question: For `CC(C)[C@H](NC(=O)c1ccc2ccccc2n1)C(=O)N[C@@H](CC(=O)O)C(=O)COc1c(F)cccc1F` [QVD], which “effect … on CDK9 degradation by 955” value (CDK9 [1]) is on record?
Answer: does not block

Question: What does the source list for `COc1cc(/C=C/C(=O)N2CCC=CC2=O)cc(OC)c1OCCN1CCN(C(=O)CN2CCC(C(=O)Nc3ncc(SCc4ncc(C(C)(C)C)o4)s3)CC2)CC1` [compound 955, (E)-N-(5-(((5-(tert-butyl)oxazol-2-yl)methyl)thio)thiazol-2-yl)-1-(2-(4-(2-(2,6-dimethoxy-4-(3-oxo-3-(6-oxo-3,6-dihydropyridin-1(2H)-yl)prop-1-en-1-yl)phenoxy)ethyl)piperazin-1-yl)-2-oxoethyl)piperidine-4-carboxamide]?
Answer: potency relative to SNS-032 in downregulation of c-Myc and MCL-1 expression (c-Myc and MCL-1 [9]): about 10 fold; induction of PARP cleavage (MOLT4 cells): more potent in inducing PARP cleavage than SNS-032; time to almost complete degradation of CDK9 (CDK9 [1]; 0.1 μM, time course): ≤ 8 h; CDK9 degradation (CDK9 [1]; [14]): can induce CDK9 degradation; CDK9 degradation (CDK9 [1]; short-term treatment (6 h)): potently degrade CDK9; duration of CDK9 degradation after removal of compound from the culture (CDK9 [1]; washout): up to 18 h; CDK9 level (global proteome) (CDK9 [7]; 0.1 μM for 1 h and 6 h): significant reduction of CDK9; downregulation of CDK9-dependent transcription [10]: more potent than SNS-032; effect of KEAP1 knockdown on cytotoxicity (H1299 lung cancer cells): attenuated the cytotoxicity; c-Myc and MCL-1 expression (c-Myc and MCL-1 [11]): downregulated c-Myc and MCL-1; number of E3 ligases whose interaction with CDK9 is induced (V5-TurboID-CDK9; 293T cells expressing V5-TurboID-CDK9): 6 E3 ligases; KEAP1 pulled down (immunoblot of TurboID-bait assay) (V5-TurboID-CDK9; 293T cells, in the presence of biotin, with vs without compound): significantly more KEAP1 can be pulled down; CDK10 degradation (CDK10 [8]): potently degrade CDK10; effect of KEAP1 knockdown on cytotoxicity [2]: attenuated the cytotoxicity; competition with IA-alkyne for binding to KEAP1 (purified KEAP1 protein): can compete with IA-alkyne to covalently bind to KEAP1 in a concentration-dependent manner; formation of CDK9:KEAP1 ternary complex (nanoBRET) [3]: can induce the formation of the CDK9:955:KEAP1 ternary complex in a dose-dependent manner; CDK9 degradation (CDK9 [12]): potently degraded CDK9; CDK9 degradation after ectopic expression of Halo-tagged KEAP1 (CDK9 [13]; KEAP1 stable knockout H1299 cells, 0.1 μM, 6 h): rescued CDK9 degradation; CDK9 degradation after depleting KEAP1 (CDK9 [13]; siRNA and CRISPR-Cas9 knock down/out of KEAP1, H1299 cells): blocked
